{"source": "patent EP3202813A1", "about": "“CURABLE COMPOSITION AND MOLDED ARTICLE COMPRISING THE COMPOSITION” (Telene SAS, priority 2016, dated 2017)", "experiment": "Half-life t1/2CT of radical generators, calculated by Arrhenius formulae from supplier data", "type": "physicochemical", "description": "The half-life of the radical generators used in the compositions for different curing temperatures CT have been calculated by using the well-known formulae given below and data obtained by the supplier of the radical generators (AkzoNobel) (Tables 1-4) kd = A⋅e^(−Ea/RT) [formula] t½ = (ln2)/kd [formula] • Ea = 127.52 kJ/mole • A = 7.59E+13 s^-1 • R = 8.3142 J/mole·K • T = (273.15+°C) K Table 1: The half-life t1/2CT of Trigonox 29C at different curing temperatures CT\nkd = A⋅e^(−Ea/RT) [formula] t½ = (ln2)/kd [formula] • Ea = 124.90 kJ/mole • A = 1.54E+14 s^-1 • R = 8.3142 J/mole·K • T = (273.15+°C) K Table 2: The half-life t1/2CT of Trigonox 21S at different curing temperatures CT\nkd = A⋅e^(−Ea/RT) [formula] t½ = (ln2)/kd [formula] • Ea = 140.78 kJ/mole • A 1.94E+15 s^-1 • R = 8.3142 J/mole·K • T =(273.15+°C) K Table 3: The half-life t1/2CT of Trigonox 42S at different curing temperatures CT\nkd = A⋅e^(−Ea/RT) [formula] t½ = (ln2)/kd [formula] • Ea = 153.46 kJ/mole • A = 4.20E+15 s^-1 • R = 8.3142 J/mole·K • T = (273.15+°C) K Table 4: The half-life t1/2CT of Trigonox B at different curing temperatures CT", "data": [{"smiles": "CC(C)(C)OOC(C)(C)C", "note": "[Trigonox B, tert-butyl peroxide]", "values": [{"measurement": "t1/2", "setting": "T 80 °C", "value": 2291.85, "unit": "h"}, {"measurement": "t1/2 (h)", "setting": "T 80 °C", "value": "2291,8 h"}, {"measurement": "t1/2 (min)", "setting": "T 80 °C", "value": "137511,0 min"}, {"measurement": "t1/2", "setting": "T 90 °C", "value": 543.4131, "unit": "h"}, {"measurement": "t1/2 (h)", "setting": "T 90 °C", "value": "543,4 h"}, {"measurement": "t1/2 (min)", "setting": "T 90 °C", "value": "32604,8 min"}, {"measurement": "t1/2", "setting": "T 95 °C", "value": 272.481, "unit": "h"}, {"measurement": "t1/2 (h)", "setting": "T 95 °C", "value": "272,5 h"}, {"measurement": "t1/2 (min)", "setting": "T 95 °C", "value": "16348,8 min"}, {"measurement": "t1/2", "setting": "T 100 °C", "value": 139.18, "unit": "h"}, {"measurement": "t1/2 (h)", "setting": "T 100 °C", "value": "139,2 h"}, {"measurement": "t1/2 (min)", "setting": "T 100 °C", "value": "8350,8 min"}, {"measurement": "t1/2", "setting": "T 105 °C", "value": 72.3653, "unit": "h"}, {"measurement": "t1/2 (h)", "setting": "T 105 °C", "value": "72,4 h"}, {"measurement": "t1/2 (min)", "setting": "T 105 °C", "value": "4341,9 min"}, {"measurement": "t1/2", "setting": "T 110 °C", "value": 38.2736, "unit": "h"}, {"measurement": "t1/2 (h)", "setting": "T 110 °C", "value": "38,3 h"}, {"measurement": "t1/2 (min)", "setting": "T 110 °C", "value": "2296,4 min"}, {"measurement": "t1/2", "setting": "T 120 °C", "value": 11.239, "unit": "h"}, {"measurement": "t1/2 (h)", "setting": "T 120 °C", "value": "11,2 h"}, {"measurement": "t1/2 (min)", "setting": "T 120 °C", "value": "674,4 min"}, {"measurement": "t1/2", "setting": "T 130 °C", "value": 3.5075, "unit": "h"}, {"measurement": "t1/2 (h)", "setting": "T 130 °C", "value": "3,5 h"}, {"measurement": "t1/2 (min)", "setting": "T 130 °C", "value": "210,4 min"}, {"measurement": "t1/2", "setting": "T 150 °C", "value": 0.4028, "unit": "h"}, {"measurement": "t1/2 (h)", "setting": "T 150 °C", "value": "0,4 h"}, {"measurement": "t1/2 (min)", "setting": "T 150 °C", "value": "24,2 min"}, {"measurement": "t1/2", "setting": "T 190 °C", "value": 0.00944, "unit": "h"}, {"measurement": "t1/2 (h)", "setting": "T 190 °C", "value": "0,01 h"}, {"measurement": "t1/2 (min)", "setting": "T 190 °C", "value": "0,6 min"}]}]}
